Results on one compound are retold here after PMC6131501, “Urate transporter inhibitor lesinurad is a selective peroxisome proliferator-activated receptor gamma modulator (sPPARγM) in vitro” (Scientific Reports, 2018).

Entries after “also recorded” stand apart in the source; their conditions may differ.

The subject of data set [1] is PPARγ. The arrangement: method as in PMID 27716403. The following applies: up to 100 μM; non-human cell line overexpressing PPARγ; cited from earlier work.
Data set [2] deals with urate transporter 1 (URAT1). The arrangement: method as in PMID 27716403. The following applies: cited from earlier work.
Another data set deals with 3T3-L1 adipocytes. Kind of data set: Differentiation of 3T3-L1 adipocytes, Oil Red O staining. Type of data set: cell-based, murine. The following applies: rosiglitazone 2 μM; lesinurad up to 50 μM. How it is done:
For this, 3T3-L1 cells were treated with insulin, dexamethasone and isobutylmethylxanthine (IBMX) to induce their differentiation into mature adipocytes. […] 3T3-L1 cells were subcultured in DMEM containing 10% newborn calf serum in a humidified atmosphere at 37 °C, 5% CO2. Cells were differentiated into adipocytes within 14 days according to the method[54] reported by Zebisch and colleagues. In brief, cells were seeded in 6-well plates ([…]). […] At day 5, medium was changed to contain only insulin for another two days. Cells were then kept for lipid droplet accumulation in basal medium without additions until day 15. […] Differentiation of 3T3-L1 cells to adipocytes was confirmed by Oil Red O staining. For this, cells were washed with PBS and then fixed for 60 min with a formaldehyde solution (4% in PBS). Subsequently, cells were rinsed with 60% isopropanol and incubated with Oil Red O solution (0.3%) for 120 min.

Another data set has as its target T1, PPARα (Homo sapiens, UniProt Q07869).
T1 construct: expressed in transfected cells; host or cells: HEK293T
T1 sequence (Q07869 239-466 limits assumed): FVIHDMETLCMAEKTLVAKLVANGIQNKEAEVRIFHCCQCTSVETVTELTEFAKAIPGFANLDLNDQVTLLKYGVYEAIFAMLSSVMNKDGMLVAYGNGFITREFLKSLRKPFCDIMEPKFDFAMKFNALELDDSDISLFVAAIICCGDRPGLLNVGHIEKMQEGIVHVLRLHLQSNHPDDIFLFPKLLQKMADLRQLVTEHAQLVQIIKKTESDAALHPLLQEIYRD
Put plainly: Gal4 hybrid reporter gene assay PPARα. Type of data set: cell-based. From the text: (§1) These in vitro test systems are based on a constitutively expressed hybrid receptor composed of the ligand binding domain of the respective human nuclear receptor and the DNA binding domain of the yeast receptor Gal4. A Gal4-inducible firefly luciferase serves as reporter gene and a constitutively expressed renilla luciferase is used for normalization of transfection efficacy and internal toxicity control[18],[19]. […] The Gal4-fusion receptor plasmids pFA-CMV-hPPARα-LBD[50], pFA-CMV-hPPARγ-LBD[50], pFA-CMV-hPPARδ-LBD[50], pFA-CMV-hLXRα-LBD[51], pFA-CMV-hLXRβ-LBD[51], pFA-CMV-hRXRα-LBD[52], pFA-CMV-hRXRβ-LBD[52], pFA-CMV-hRXRγ-LBD[52], pFA-CMV-hRARα-LBD[52], pFA-CMV-hRARβ-LBD[52], pFA-CMV-hRARγ-LBD[52], pFA-CMV-hFXR-LBD[53], pFA-CMV-hVDR-LBD[52], pFA-CMV-hCAR-LBD[52] and pFA-CMV-hPXR-LBD[52] coding for the hinge region and ligand binding domain (LBD) of the canonical isoform of the respective nuclear receptor have been reported previously. pFR-Luc (Stratagene) was used as reporter plasmid and pRL-SV40 (Promega) for normalization of transfection efficiency and cell growth.
(§2) HEK293T cells were grown in DMEM high glucose, supplemented with 10% FCS, sodium pyruvate (1 mM), penicillin (100 U/mL) and streptomycin (100 μg/mL) at 37 °C and 5% CO2. The day before transfection, HEK293T cells were seeded in 96-well plates (3·10^4 cells/well). Before transfection, medium was changed to Opti-MEM without supplements. Transient transfection was carried out using Lipofectamine LTX reagent (Invitrogen) according to the manufacturer’s protocol with pFR-Luc (Stratagene), pRL-SV40 (Promega) and the corresponding Gal4-fusion nuclear receptor plasmid. 5 h after transfection, medium was changed to Opti-MEM supplemented with penicillin (100 U/mL), streptomycin (100 μg/mL), now additionally containing 0.1% DMSO and the respective test compound or 0.1% DMSO alone as untreated control. Each concentration was tested in duplicates and each experiment was repeated independently at least three times. Following overnight (12-14 h) incubation with the test compounds, cells were assayed for luciferase activity using Dual-Glo™ Luciferase Assay System (Promega) according to the manufacturer’s protocol. Luminescence was measured with an Infinite M200 luminometer (Tecan Deutschland GmbH). […] Fold activation was obtained by dividing the mean RLU of a test compound at a respective concentration by the mean RLU of untreated control.
(In general: Reporter assays use an easily measured gene product as a stand-in for the process of interest.)

A further data set concerns the target PPARγ LBD / CBP (Homo sapiens, UniProt P37231). Kind of data set: PPARγ coactivator recruitment assay (time-resolved FRET), CBP. Type of data set: biochemical. From the text:
We analyzed the ability of lesinurad to induce recruitment of the coactivators steroid receptor coactivator 1 (SRC-1, also known as nuclear receptor coactivator 1 (NCOA1)) and cyclic AMP responsive element binding (CREB) protein (CBP) to the PPARγ ligand binding domain in a time-resolved FRET assay with labeled PPARγ-LBD and coactivator proteins (Fig. 5D).
Recruitment of coactivator-derived peptides to the PPARγ LBD was studied by homogeneous time-resolved fluorescence resonance energy transfer (HT-FRET or HTRF). Terbium cryptate as streptavidin conjugate (cisbio assays, France) was used as FRET donor. Peptides derived from coactivators SRC-1 [biotin-[…]] or CBP [biotin-[…]] encompassing the coactivator consensus motif LxxLL and N-terminal biotin for stable coupling to streptavidin were purchased (Eurogentec GmbH, Germany). […] FI520 nm was divided by FI620 nm and multiplied with 10,000 giving a dimensionless HTRF signal. Coactivator recruitment by the PPARγ LBD brings FRET donor and acceptor into close proximity resulting in a gain in FRET signal as signal for binding.

Details of data set [3]: method as in PMID 27716403, PMID 26951201. The settings on record: cited from earlier work.
The subject of the next data set is CYP3A4. The arrangement: method as in PMID 28067999. The following applies: cited from earlier work.
For data set [4], the target named is T2, PPARγ (Homo sapiens, UniProt P37231).
T2 construct: expressed in transfected cells; host or cells: HEK293T
T2 sequence (P37231 238-503 limits assumed): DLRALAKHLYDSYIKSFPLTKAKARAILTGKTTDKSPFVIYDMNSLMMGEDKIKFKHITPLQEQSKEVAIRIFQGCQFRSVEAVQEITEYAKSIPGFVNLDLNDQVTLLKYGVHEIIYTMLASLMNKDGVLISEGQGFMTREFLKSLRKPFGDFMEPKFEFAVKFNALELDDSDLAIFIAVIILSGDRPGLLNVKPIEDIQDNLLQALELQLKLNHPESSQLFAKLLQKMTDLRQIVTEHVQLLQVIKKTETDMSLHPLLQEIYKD
Put plainly: Gal4 hybrid reporter gene assay PPARγ. Type of data set: cell-based.
Source text: as §1, §2

The mark [5] stands for this setting: Gal4 hybrid reporter, HEK293T, 12-14 h, mean ± SEM, at least three experiments.

In general, IC50 refers to the concentration needed to halve the response being measured. Broadly, the EC50 is the concentration at which the effect is half-maximal.

Chain of PPARγ LBD / CBP (Q92793 58-80 partner limits assumed, one chain of several): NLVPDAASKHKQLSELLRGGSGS

Turning to `O=C(O)CSc1nnc(Br)n1-c1ccc(C2CC2)c2ccccc12` [lesinurad], the “PPARγ activation reported by Miner et al.” value with PPARγ [1] was “does not activate PPARγ”. For the same compound, the IC50 in data set [2] is 3.5 µM. In addition, in the data set on 3T3-L1 adipocytes, the “lipid accumulation during differentiation (Oil Red O staining)” value is on record as “lacked this adipogenic effect; also recorded: does not induce fat accumulation”. The Gal4-PPARα transactivation result at PPARα (30 μM, compared with PPARγ) is recorded as “lower efficacy”. For the same compound, the EC50 on PPARα (setting [5]) was 20.8 ± 0.7 µM; on PPARγ LBD / CBP (HTRF, PPARγ LBD, 2 h at RT) it was 44 ± 8 µM; on PPARγ [4] (setting [5]), 18.5 ± 0.7 µM. The PPARα activation efficacy on PPARα (vs. 1 µM of PPARα agonist GW7647) was found to be 13.5 ± 0.5%. This compound also had a CBP recruitment efficacy at PPARγ LBD / CBP (compared to 1 μM rosiglitazone) of 59 ± 4%. The plasma protein binding in data set [3] is listed as 98%. For the same compound, the CYP3A4 induction entry in the data set on CYP3A4 is recorded as “CYP3A4 inducer”. For the same compound, the Gal4-PPARγ transactivation entry at PPARγ [4] (30 μM) was “robustly transactivated”.
